# Key:
# PPARG = assay: Western blot of PPARG protein in IMR-32 cells; format: cell-based, human; details: 150 ppb, 6 hours
# Procedure: IMR-32 cells were seeded on 6-well plates and then treated with control and various compounds for 6 hours and 24 hours, as described above. After treatments, cells were rinsed with ice-cold PBS and lysed in ice-cold RIPA buffer containing complete proteinase and phosphatase inhibitors (Thermo-Fisher Scientific, Waltham, Mass.) on ice for 30 min Cell lysates were collected using a cell scraper and transfer pipette and then centrifuged at 12000×g for 30 min at 4° C. to remove the DNA pellet and obtain the protein extract. Protein levels in the supernatant of these cell lysates were determined using the Pierce Micro-BCA protein assay kit (Thermo Scientific-Piece Biotechnology, Rockford, Ill.) according to the manufacturer's protocol […]
# Positive signals on the membrane blots were detected using Amersham's enhanced chemiluminescence (ECL) Western Blotting Prime Detection reagents (GE healthcare Lifescience, Pittsburgh, Pa.). Images of these luminescence signals on the membrane blots were captured using the LI-COR Odyssey Fc Image system (Lincoln, Nebr.). […] Protein band densities in the Western blots were determined using the Li—COR Image studio software or NIH ImageJ software, and then normalized by ACTB protein level in each sample. […]
# [1] = tested on: NOTCH signaling molecules in IMR-32 cells; assay: QRT-PCR of key NOTCH signaling molecules in IMR-32 cells; format: cell-based, human; details: 150 ppb; for HER2 mRNA expression (mean ± sem) / HES1 mRNA expression (mean ± sem) / HEY1 mRNA expression (mean ± sem) / NFKB1 mRNA expression (mean ± sem) / NFKB2 mRNA expression (mean ± sem) / NOTCH 1 mRNA expression (mean ± sem) / NOTCH 2 mRNA expression (mean ± sem) / NOTCH 3 mRNA expression (mean ± sem) / RBPJ mRNA expression (mean ± sem): control 100
# Procedure: QRT-PCR analysis of several Notch signaling molecules was performed in IMR-32 cells to test if Compound C is toxic to the Notch signaling in vitro. In brief, IMR-32 cells were treated with a water control and 150 ppb Compound C in 10% FBS containing MEM media for 6 hours, 24 hours, and 48 hours. These molecules were selected based on the IPA GO search.
# [2] = tested on: Zic1-5, Foxp2, Drd1a, Tac1, Sez6, Penk, Dlx5, Rarb, Meis2, Ddx5, Gpr88, Pde10a, Akap5, Isl1; assay: QRT-PCR of Zic genes and brain development/neuronal function genes in APP/PS1 mouse brains; format: in vivo; details: Compound C diet vs control diet
# Procedure: Male APPΔNLh/ΔNLh×PS1P246 L/246 L knock-in model mice of Alzheimer's disease (abbreviated APP/PS1) were genotyped using standard primers for human APP (Amyloid Precursor Protein) and human PS1 (PSEN1). These APP/PS1 mice starting at the age of 6 months, were fed either a control diet containing normal levels of selenium (0.3 ppm from plant and inorganic selenium salt sources) or an experimental diet containing Compound C (the control diet to which was added 1 ppm Se from Compound C) for 6 months. […]
# Approximately 10 mg brain sample was homogenized with a Qiagen TissueRuptor (Qiagen, Valencia, Calif.) and total RNA was extracted using an RNeasy Mini kit (Qiagen), following the protocol recommended by the company. […] Integrity and purity of isolated RNA was assessed using a NanoDrop ND-1000 spectrophotometer (Thermo Scientific, Wilmington, Del.) and further confirmed with an Agilent 2100 Bioanalyzer System (Agilent Technologies, Santa Clara, Calif.).
# RNA samples were subjected to real-time PCR analysis using the Applied-Bioscience's RT kit and predesigned Taqman probes (Invitrogen), as described previously (Lan et al EMBO J 2003). Three to six samples were analyzed in each group. […]
structure (smiles),measurement,setting,value
"C[Se]C[C@H]1O[C@@H](n2cnc3c(N)ncnc32)C(O)C1O (stereo in doubt) [Compound C, 5′-deoxy-5′-methylselenoadenosine]",PPARG protein expression,PPARG,markedly attenuated
same,NOTCH 4 mRNA expression,[1]; 6 hours treatment (cell spans control and #C),Undetected
same,HER2 mRNA expression (mean ± sem),[1]; 6 hours treatment,96 ± 4 (4)
same,HES1 mRNA expression (mean ± sem),[1]; 6 hours treatment,101 ± 6 (4)
same,HEY1 mRNA expression (mean ± sem),[1]; 6 hours treatment,120 ± 9 (4)
same,NFKB1 mRNA expression (mean ± sem),[1]; 6 hours treatment,112 ± 7 (4)
same,NFKB2 mRNA expression (mean ± sem),[1]; 6 hours treatment,103 ± 7 (4)
same,NOTCH 1 mRNA expression (mean ± sem),[1]; 6 hours treatment,94 ± 7 (4)
same,NOTCH 2 mRNA expression (mean ± sem),[1]; 6 hours treatment,95 ± 16 (4)
same,NOTCH 3 mRNA expression (mean ± sem),[1]; 6 hours treatment,95 ± 7 (4)
same,RBPJ mRNA expression (mean ± sem),[1]; 6 hours treatment,trend of increased expression
same,RBPJ mRNA expression (mean ± sem),"[1]; 6 hours treatment, listed as #C",144 ± 12 (4)
same,expression of all tested Notch signaling genes,"[1]; 6 hours, 24 hours and 48 hours",did not significantly inhibit
same,NOTCH 4 mRNA expression,[1]; 24 hours treatment (cell spans control and #C),Undetected
same,HER2 mRNA expression (mean ± sem),[1]; 24 hours treatment,100 ± 11
same,HES1 mRNA expression (mean ± sem),[1]; 24 hours treatment,102 ± 18
same,HEY1 mRNA expression (mean ± sem),[1]; 24 hours treatment,121 ± 10
same,NFKB1 mRNA expression (mean ± sem),[1]; 24 hours treatment,106 ± 11
same,NFKB2 mRNA expression (mean ± sem),[1]; 24 hours treatment,85 ± 28 (3)
same,NOTCH 1 mRNA expression (mean ± sem),[1]; 24 hours treatment,89 ± 10 (3)
same,NOTCH 2 mRNA expression (mean ± sem),[1]; 24 hours treatment,103 ± 27
same,NOTCH 3 mRNA expression (mean ± sem),[1]; 24 hours treatment,105 ± 14
same,RBPJ mRNA expression (mean ± sem),[1]; 24 hours treatment,119 ± 37
same,HER2 mRNA expression (mean ± sem),[1]; 48 hours treatment,106 ± 23
same,HES1 mRNA expression (mean ± sem),[1]; 48 hours treatment,115 ± 9 (4)
same,HEY1 mRNA expression (mean ± sem),[1]; 48 hours treatment,115 ± 11
same,NFKB1 mRNA expression (mean ± sem),[1]; 48 hours treatment,109 ± 12
same,NFKB2 mRNA expression (mean ± sem),[1]; 48 hours treatment,97 ± 14 (4)
same,NOTCH 1 mRNA expression (mean ± sem),[1]; 48 hours treatment,90 ± 9 (3)
same,NOTCH 2 mRNA expression (mean ± sem),[1]; 48 hours treatment,94 ± 40 (3)
same,NOTCH 3 mRNA expression (mean ± sem),[1]; 48 hours treatment,81 ± 23 (4)
same,RBPJ mRNA expression (mean ± sem),[1]; 48 hours treatment,97 ± 7 (4)
same,"expression of Foxp2, Drd1a, Tac1, Sez6, Penk, Dlx5, Rarb, Meis, Ddx5, Gpr88, Pde10a, Isl1 and Akap5 by QRT-PCR",[2],significantly elevated
same,"expression of Zic1, Zic2, Zic3, Zic4 and Zic5 by QRT-PCR",[2],significantly elevated
